Measured values from US20200108034A1, “USE OF CITRULLINE AND GLUTATHIONE TO INCREASE MUSCLE MASS” (KYOWA HAKKO BIO CO., LTD., priority 2017, published 2020).

How the values were obtained:
Type in all cases: in vivo, human
[1] = Body composition (body mass, DEXA fat mass, bioimpedance total body water) at days 0, 29, 57; details: mean ± SEM, N = 25; for Fat Mass: DEXA; for Total Body Water: bioelectrical impedance
Procedure: (§1) Seventy-five resistance-trained (e.g., regular, resistance training thrice weekly for at least one year prior to the study) males between the ages of 18-35 and having a BMI between 18.5 and 30 kg/m^2 were divided into 3 groups of 25, wherein each group received one of the following supplements: (A) 2 g/day L-citrulline (CIT) and 200 mg/day glutathione (GSH), (B) 2 g/day L-citrulline malate only, or (C) 2.52 g/day of cellulose placebo. Participants were matched by total body mass and then randomly assigned a supplementation protocol in a double-blind fashion. Participants took their supplements one hour prior to their workout on exercise days. On non-exercise days, participants took their supplements in the morning with breakfast.
(§2) Body composition was measured at days 0, 29, and 57 during the study. Total body mass (kg) was determined on a standard dual beam balance scale (Detecto, Bridgeview, Ill.). Percent body fat, fat mass, and fat-free mass were determined using DEXA (Discovery Series W, commercially available from Hologic, Waltham, Mass.). Quality control calibration procedures were performed on a spine phantom (X-CALIBER Model DPA/QDR-1 anthropometric spine phantom, commercially available from Hologic, Waltham, Mass.) and a density step calibration phantom prior to each testing session. Total body water was determined with bioelectrical impedance spectroscopy (Tanita Inc., Arlington Heights, Ill.) using a low energy, high frequency current (500 micro amps at a frequency of 50 kHz).
Participants engaged in a supervised, periodized 4 day per week resistance-training program split into two upper and two lower extremity workouts per week for a total of 8 weeks. Prior to the workout, participants performed a standardized series of stretching exercises. The participants then performed an upper-body resistance-training program consisting of bench press, lat pull, shoulder press, seated row, shoulder shrugs, chest fly, biceps curl, triceps press down, and abdominal curls, twice per week, and a lower-body program consisting of leg press, back extension, step ups, leg curls, leg extension, heel raises, and abdominal crunches, also performed twice per week. Participants performed 3 sets of 10 repetitions with as much weight as they could lift per set (typically 70 to 80% of 1-RM). Rest periods between exercises and sets lasted no longer than 2 minutes.

[2] = Serum general clinical chemistry markers, day 0 and day 57; details: mean ± SEM, N = 25
Procedure: as §1
(§3) Venous blood samples were obtained from the antecubital vein using a standard VACUTAINER™ apparatus into one tube for serum separation and one for whole blood. The serum separation tubes were allowed to stand at room temperature for 15 minutes and then centrifuged for 10 minutes, and serum was removed and placed into a microfuge tube. Blood samples were obtained prior to the first dose of supplement and prior to beginning the resistance training program (day 0) and after eight weeks of supplementation and resistance training (day 57).
(§4) Serum samples were assayed for the following general clinical chemistry markers: glucose, total protein, blood urea nitrogen, creatinine, BUN/creatinine ratio, AST, ALT, albumin, globulin, total bilirubin, alkaline phosphatase. Whole blood samples were assayed for standard cell blood counts with percentage differentials, such as hemoglobin, red blood cell counts, white blood cell counts, neutrophils, lymphocytes, monocytes, eosinophils, and basophils.

[3] = Whole blood cell counts with differentials, day 0 and day 57; details: mean ± SEM; for Absolute basophils / Absolute eosinophils / Absolute lymphocytes / Absolute monocytes / Absolute neutrophils / Hb / Platelet / RBC / WBC: N = 25; for Red cell distribution width: N = 25, in % (unit assumed)
Procedure: as §1, §3, §4

[4] = Change in muscle mass after 8-week resistance training with supplementation
Procedure: as §1
as §2, with “Quality control calibration procedures were performed on a spine phantom (X-CALIBER Model DPA/QDR-1 anthropometric spine phantom, commercially available from Hologic, Waltham, Mass.) and a density step calibration phantom prior to each testing session.” left out, “kHz). […]” for “kHz).”

In the case of `NC(=O)NCCC[C@H](N)C(=O)O.O=C(O)CC(O)C(=O)O` [CIT-malate, L-citrulline malate], the “Fat Mass” value ([1]; Baseline) is reported as 11.2 ± 1.04 kg, the “Total Body Water” value ([1]; Baseline) is reported as 47.9 ± 1.14 kg and the “Body Mass” value ([1]; Baseline) is reported as 79.2 ± 2.50 kg. For the same compound, the “Fat Mass” value ([1]; supplementation week 4) was 11.5 ± 0.92 kg, the “Total Body Water” value ([1]; supplementation week 4) was 48.1 ± 1.16 kg and the “Body Mass” value ([1]; supplementation week 4) was 79.5 ± 2.52 kg. The “Fat Mass” value ([1]; supplementation week 8) was 11.9 ± 0.96 kg, the “Total Body Water” value ([1]; supplementation week 8) was 48.4 ± 1.14 kg and the “Body Mass” value ([1]; supplementation week 8) was 80.1 ± 2.42 kg. The ALP ([2]; 8 weeks) was 73.0 ± 4.5 IU/L, the ALT ([2]; 8 weeks) was 22.9 ± 1.8 IU/L and the AST ([2]; 8 weeks) was 21.3 ± 1.3 IU/L. For the same compound, the Albumin ([2]; 8 weeks) was 4.7 ± 0.05 g/dL, the Albumin/Globulin ([2]; 8 weeks) was 1.9 ± 0.06 and the Bilirubin ([2]; 8 weeks) was 0.6 ± 0.05 mg/dL. The Creatinine ([2]; 8 weeks) was 1.1 ± 0.04 mg/dL, the Glucose ([2]; 8 weeks) was 101.8 ± 3.9 mg/dL and the Total protein ([2]; 8 weeks) was 7.2 ± 0.1 g/dL. It also gave a Urea nitrogen ([2]; 8 weeks) of 16.9 ± 0.7 mg/dL, an ALP ([2]; Baseline) of 74.9 ± 4.5 IU/L and an ALT ([2]; Baseline) of 24.9 ± 2.4 IU/L. For the same compound, the AST ([2]; Baseline) was 23.8 ± 1.5 IU/L, the Albumin ([2]; Baseline) was 4.9 ± 0.05 g/dL and the Albumin/Globulin ([2]; Baseline) was 2.0 ± 0.07. The Bilirubin ([2]; Baseline) was 0.7 ± 0.08 mg/dL, the Creatinine ([2]; Baseline) was 1.1 ± 0.03 mg/dL and the Glucose ([2]; Baseline) was 97.5 ± 3.4 mg/dL. The Total protein ([2]; Baseline) was 7.4 ± 0.1 g/dL, the Urea nitrogen ([2]; Baseline) was 16.8 ± 0.8 mg/dL and the Absolute basophils ([3]; 8 weeks) was 26.8 ± 3.2 µL⁻¹. The Absolute eosinophils ([3]; 8 weeks) was 312.8 ± 79.5 µL⁻¹, the Absolute lymphocytes ([3]; 8 weeks) was 1902.7 ± 85.5 µL⁻¹ and the Absolute monocytes ([3]; 8 weeks) was 370.5 ± 30.7 µL⁻¹. For the same compound, the Absolute neutrophils ([3]; 8 weeks) was 3292.4 ± 318.9 µL⁻¹, the Hb ([3]; 8 weeks) was 15.0 ± 0.1 g/dL and the Platelet ([3]; 8 weeks) was 212.4 ± 8.0 ×10^3/μL. The RBC ([3]; 8 weeks) was 5.1 ± 0.06 ×10^6/μL, the WBC ([3]; 8 weeks) was 5.7 ± 0.3 ×10^3/μL and the “Red cell distribution width” value ([3]; 8 weeks) was 13.5 ± 0.4. For the same compound, the Absolute basophils ([3]; Baseline) was 31.2 ± 3.3 µL⁻¹, the Absolute eosinophils ([3]; Baseline) was 130.5 ± 16.6 µL⁻¹ and the Absolute lymphocytes ([3]; Baseline) was 2032.1 ± 131.4 µL⁻¹. It also gave an Absolute monocytes ([3]; Baseline) of 371.8 ± 25.6 µL⁻¹, an Absolute neutrophils ([3]; Baseline) of 3652.2 ± 306.1 µL⁻¹ and a Hb ([3]; Baseline) of 15.1 ± 0.2 g/dL. The Platelet ([3]; Baseline) was 218.2 ± 10.9 ×10^3/μL, the RBC ([3]; Baseline) was 5.1 ± 0.07 ×10^6/μL and the WBC ([3]; Baseline) was 6.2 ± 0.3 ×10^3/μL. The “Red cell distribution width” value ([3]; Baseline) was 13.3 ± 0.1, the “participants who displayed increases in muscle mass at both 4 and 8 weeks” value ([4]; FIG. 2, 25 per group) was 36% and the “change in muscle mass” value ([4]; at 4 and 8 weeks, vs placebo, heavy resistance training, FIGS. 1A and 1B) was “increase in muscle mass compared to persons receiving only placebo”.
